By pIC50 is commonly meant the negative decadic logarithm of the IC50, by convention in mol/L.

Drawing on patent US5712417A, “Inhibitors of retroviral proteases” (Abbott Laboratories, priority 1989, dated 1998), this text covers IC50 for nine molecules.

pIC50: −log10 of the molar value. Counter-ions that a name gives are not always drawn.

One experiment has as its target T1, HIV protease (Human immunodeficiency virus type 1 group M subtype B, UniProt P04585).
T1 construct: HIV protease consists of 99 amino acids and is evidently split off by itself from the pol polyprotein
As to the kind of experiment: Inhibition of HIV protease (cleavage of H-Ser-Phe-Asn-Phe-Opr-Gln-Ile-OH, HPLC). Type of experiment: biochemical. Conditions: inhibitor concentration at which the cleavage rate is halved; pH 6, 2 hours. The source says: The compounds of the formula (I) according to the invention have enzyme-inhibiting properties. In particular, they inhibit the action of retroviral aspartyl proteases, such as that of HIV protease. Their enzyme-inhibitory action, which is in the milli- to subnanomolar range, can be determined as follows.
The heptapeptide: H-Ser-Phe-Asn-Phe-Pro-Gln-Ile-OH (P. L. Darke et al., Biophys. Res. Commun. 156 (1988) 297-303), inter alia, has hitherto been used as the substrate of HIV protease. HIV protease cleaves the substrate here between the second Phe and Pro.
General instructions for testing inhibitors of HIV proteases: a) Preparation of the substrate solution:
2 mg of H-Ser-Phe-Asn-Phe-Opr-Gln-Ile-OH (H-Opr-OH=5-oxaproline) are dissolved in 1 ml of MGTE15 buffer (use of ultrasound if necessary) and the solution is then filtered over a sterile filter (0.45 μm). […]
b) Preparation of the inhibitor solution:
2.5 times the desired molarity of the inhibitor per ml of solution are weighed out and dissolved in DMSO (10% of the final volume). The solution is diluted to the final volume with MGTE15 buffer and filtered over a sterile filter (0.45 μm). […]
c) Preparation of the protease solution:
5 μl of the HIV protease solution are diluted with MGTE25 buffer as required.
10 μl portions of the substrate solution are pipetted into test-tubes (16×100) with a screw cap. For the blank experiment, 10 μl of MGTE15 buffer containing 10% of DMSO are pipetted into a test-tube. 10 μl portions of the inhibitor solutions are added to the other test-tubes. The mixtures are incubated at 37° C. for 5-10 minutes and 5 μl of the protease solution are then added to each sample, After reaction at 35° C. for 2 hours, 10 or 20 μl (depending on the sensitivity of the HPLC apparatus) of each sample are then pipetted off, introduced into microvials and diluted with 120 μl of the HPLC mobile phase. […]
e) Conditions for the HPLC analysis:
20% (weight/weight) of aceto-
Column: Merck ®LICHROSORB RP18 (5 μm) 250×4
Column temperature: 42° C.
Detector parameters: 215 nm, 0.08 AUF, 18.2° C.
Analysis time: 11 minutes
Retention time of the substrate: 8.1 minutes
Retention time of the N-terminal tetrapeptide: 3.9 minutes
20 mM morpholinoethanesulfonic acid (MES)
15% (weight/volume) of glycerol
0.1% (volume/volume) of Triton ×100
1 mM phenylmethylsulfonyl fluoride (PMSF)
25% (weight/volume) of glycerol, additionally 1 mM dithiothreitol (DTT) The MES, EDTA, NaCl, DTT and PMSF are weighed into a conical flask and dissolved in a little water and the pH is brought to 6. The corresponding amount of glycerol is weighed into a measuring flask and ®Triton ×100 is pipetted in. The aqueous solution is transferred to the measuring flask and made up to the mark with water.
A 0.1M solution is prepared from orthophosphoric acid (FLUKA extra pure analytical grade). This solution is brought to exactly pH 2.5 with triethylamine (FLUKA extra pure analytical grade). The weight of the solution is determined and the corresponding amount of acetonitrile (fume cupboard) is weighed in. The mixture is mixed thoroughly and degassed with helium 5.0 for about 5 minutes.
Under the conditions chosen here, heptapeptides are separated from the N-terminal tetrapeptide formed during enzymatic cleavage. The percentage content of the tetrapeptide peak in respect of the sum of tetrapeptide+heptapeptide corresponds to the cleaving rate. The following IC50 values indicate the inhibitor concentration at which the cleavage rate is halved.
`CC(C)[C@H](NC(=O)[C@H](Cc1ccccc1)NC(=O)[C@H]1CC[C@@H](NC(=O)OC(C)(C)C)CC1)C(=O)N[C@@H](Cc1ccccc1)[C@H](O)[C@@H](O)[C@H](Cc1ccccc1)NC(=O)[C@@H](NC(=O)[C@H](Cc1ccccc1)NC(=O)[C@H]1CC[C@@H](NC(=O)OC(C)(C)C)CC1)C(C)C` [Example 50, N,N'-bis-(4Z -N-tert.-Butoxycarbonylamino)-cyclohexanecarbonyl-L-phenylalanyl-L-valyl)-2S, 5S-diamino-1,6-diphenyl-4S, 5S-diol dihydrochloride] had a pIC50 of 7.35.

Still in this experiment, the particulars now being: inhibitor concentration at which the cleavage rate is halved; pH 6, 2 hours; read-out: IC50.
Consider `CC(C)[C@H](NC(=O)[C@H](Cc1cccc2ccccc12)CS(=O)(=O)C(C)(C)C)C(=O)N[C@@H](Cc1ccccc1)[C@H](O)[C@@H](O)[C@H](Cc1ccccc1)NC(=O)[C@@H](NC(=O)[C@H](Cc1cccc2ccccc12)CS(=O)(=O)C(C)(C)C)C(C)C` [Example 51, N,N'-bis-<(2S-(1,1-Dimethylethylsulfonylmethyl)-3-(1-naphthyl)-propionyl)-L-valyl>-2S,5S-diamino-1,6-diphenyl-hexane-3S,4S-diol], for which the pIC50 is 9.10.
Still for that read-out and setting: in the case of `CC(C)[C@H](NC(=O)[C@@H](Cc1cccs1)CS(=O)(=O)C(C)(C)C)C(=O)N[C@@H](Cc1ccccc1)[C@@H](O)[C@H](O)[C@H](Cc1ccccc1)NC(=O)[C@@H](NC(=O)[C@@H](Cc1cccs1)CS(=O)(=O)C(C)(C)C)C(C)C` [Example 54, N,N,-bis-<(2R-(1,1-Dimethylethylsulfonylmethyl)-3-(2-thienyl)-propionyl)-L-valyl>-2S,5S-diamino-1,6-diphenyl-hexane-3R,4R-diol] it was 6.59; in that of `CC(C)C[C@H](NC(=O)[C@@H](NC(=O)[C@@H](N)Cc1ccccc1)C(C)C)C(O)C(O)[C@H](CC(C)C)NC(=O)[C@@H](NC(=O)[C@@H](N)Cc1ccccc1)C(C)C` (stereo partly drawn) [Example 55, N,N'-bis-(L-Phenylalanyl-L-valyl)-4S,7S-diamino-2,9-dimethyldecane-5,6-dioldihydrochloride], 8.89.
On the same count and under the same terms, to `CC(C)[C@H](NC(=O)Cc1ccccn1)C(=O)N[C@@H](Cc1ccccc1)[C@@H](O)[C@H](O)[C@H](Cc1ccccc1)NC(=O)[C@@H](NC(=O)Cc1ccccn1)C(C)C` [Example 58, N,N'-bis-<(2-Pyridyl)-acetyl-L-valyl>-2S,5S-diamino-1,6-diphenylhexane-3R,4R-diol] belongs 7.31; to `CC(C)[C@H](NC(=O)CSc1ccncc1)C(=O)N[C@@H](Cc1ccccc1)[C@@H](O)[C@H](O)[C@H](Cc1ccccc1)NC(=O)[C@@H](NC(=O)CSc1ccncc1)C(C)C` [Example 59, N,N'-bis-<(4-Pyridylthio)-acetyl-L-valyl>-2S,5S-diamino-1,6-diphenylhexane-3R,4R-diol], 7.33.
As to `CC(C)[C@H](NC(=O)[C@H](N)Cc1ccccc1)C(=O)N[C@@H](Cc1ccccc1)[C@H](O)[C@@H](O)[C@H](Cc1ccccc1)NC(=O)[C@@H](NC(=O)[C@H](N)Cc1ccccc1)C(C)C` [Example 61, N,N'-bis-<D-Phenylalanyl-L-valyl>-2S,5S-diamino-1,6-diphenylhexane-3S,4S-diol dihydrochloride], the pIC50 was 6.40.
As to `CC(C)[C@H](NC(=O)[C@@H](Cc1ccccc1)NC(=O)OC(C)(C)C)C(=O)N[C@@H](Cc1ccccc1)[C@H](O)[C@@H](O)[C@H](Cc1ccccc1)NC(=O)[C@@H](NC(=O)[C@@H](Cc1ccccc1)NC(=O)OC(C)(C)C)C(C)C` [Example 63, N,N'-bis-<tert.-Butoxycarbonyl-D-phenylalanyl-L-valyl>-2S,5S-diamino-1,6-diphenylhexane-3S,4S-diol], the negative-log IC50 (pIC50) is 8.19.

Staying with this experiment, now noted: pH 6; read-out: IC50.
`CC(C)[C@H](NC(=O)[C@H](Cc1ccccc1)NC(=O)[C@H]1CC[C@@H](N)CC1)C(=O)N[C@@H](Cc1ccccc1)[C@H](O)[C@@H](O)[C@H](Cc1ccccc1)NC(=O)[C@@H](NC(=O)[C@H](Cc1ccccc1)NC(=O)[C@H]1CC[C@@H](N)CC1)C(C)C` [Example 49, N,N'-bis-(4Z-Aminocyclohexanecarbonyl-L-phenylalanyl-L-valyl)-2S, 5S-diamino-1,6-diphenyl-3S, 5S-diol dihydrochloride]: the pIC50 was 8.92.
